Counter-ions that a name gives are not always drawn.
Target: JAK2 (Homo sapiens (Human), UniProt O60674)
Experiment: JAK2 Tyrosine Kinase Assay
Assay type: biochemical
Settings: ATP 30 μM; JAK2 1 nM; 60 min at room temperature
Description: JAK2 Tyrosine Kinase Assay
The assays were performed in V-bottom 384-well plates. […] The reaction was initiated by the combination of JAK2 with substrates and test compounds. The reaction was incubated at room temperature for 60 min. and terminated by adding 45 μl of 35 mM EDTA to each sample. The reaction mixture was analyzed on the Caliper LABCHIP® 3000 by electrophoretic separation of the fluorescent substrate and phosphorylated product. […] Compounds were dissolved at 10 mM in dimethylsulfoxide (DMSO) and evaluated at eleven concentrations, each in duplicate. IC50 values were derived by non-linear regression analysis

JAK2, sequence (O60674 whole entry): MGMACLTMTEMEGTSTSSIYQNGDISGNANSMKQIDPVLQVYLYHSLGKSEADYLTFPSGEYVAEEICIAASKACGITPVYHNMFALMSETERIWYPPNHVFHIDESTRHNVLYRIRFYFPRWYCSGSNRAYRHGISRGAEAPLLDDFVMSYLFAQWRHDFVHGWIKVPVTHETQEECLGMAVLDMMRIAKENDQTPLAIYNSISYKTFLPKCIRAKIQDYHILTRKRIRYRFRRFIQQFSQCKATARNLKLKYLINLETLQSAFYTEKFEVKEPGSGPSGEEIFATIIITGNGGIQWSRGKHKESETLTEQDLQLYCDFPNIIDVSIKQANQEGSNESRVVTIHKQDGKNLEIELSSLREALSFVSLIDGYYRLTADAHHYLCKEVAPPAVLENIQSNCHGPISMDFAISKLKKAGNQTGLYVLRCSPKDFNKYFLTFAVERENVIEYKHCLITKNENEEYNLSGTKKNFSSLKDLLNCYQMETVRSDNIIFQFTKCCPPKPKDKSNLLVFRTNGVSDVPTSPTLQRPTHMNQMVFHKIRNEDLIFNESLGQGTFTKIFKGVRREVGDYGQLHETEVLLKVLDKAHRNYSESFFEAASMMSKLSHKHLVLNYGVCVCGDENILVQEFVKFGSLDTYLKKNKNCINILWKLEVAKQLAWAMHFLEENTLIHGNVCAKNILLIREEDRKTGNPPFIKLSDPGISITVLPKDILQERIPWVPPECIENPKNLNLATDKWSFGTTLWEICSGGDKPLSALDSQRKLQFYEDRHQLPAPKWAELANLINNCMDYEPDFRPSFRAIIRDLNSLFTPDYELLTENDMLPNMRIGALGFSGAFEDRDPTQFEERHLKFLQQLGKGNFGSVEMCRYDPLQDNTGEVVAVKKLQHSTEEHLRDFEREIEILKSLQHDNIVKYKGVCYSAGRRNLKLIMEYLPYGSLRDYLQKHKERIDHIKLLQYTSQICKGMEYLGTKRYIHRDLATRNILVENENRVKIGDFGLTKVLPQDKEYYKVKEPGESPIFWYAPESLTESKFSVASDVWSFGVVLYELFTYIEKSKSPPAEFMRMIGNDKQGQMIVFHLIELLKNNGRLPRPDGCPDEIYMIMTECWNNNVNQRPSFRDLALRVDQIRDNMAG

| Compound | IC50 [nM] |
| --- | --- |
| Cc1ccc(-c2cc(C(N)=O)c3[nH]c4ccc(C(=O)O)cc4c3c2)c(F)c1 [Example 424, 8-Carbamoyl-6-(2-fluoro-4-methylphenyl)-9H-carbazole-3-carboxylic acid] | 1 |
| NC(=O)c1cc(-c2ccc(F)c(F)c2)nc2c1[nH]c1cc(C(=O)N3CCOCC3)ccc12 [Example 216, 2-(3,4-difluorophenyl)-7-(4-morpholinylcarbonyl)-5H-pyrido[3,2-b]indole-4-carboxamide] | 7 |
| COc1cccc(-c2cc(C(N)=O)c3[nH]c4cccnc4c3c2)c1 [Example 204, 8-(3-Methoxyphenyl)-5H-pyrido[3,2-b]indole-6-carboxamide, HCl] | 29 |
| COc1cccc(-c2cc(C(N)=O)c3[nH]c4cc(C(=O)N5C[C@@H]6C[C@H]5CO6)ccc4c3c2)c1 [Example 124, 3-(3-methoxyphenyl)-7-((1S,4S)-2-oxa-5-azabicyclo[2.2.1]hept-5-ylcarbonyl)-9H-carbazole-1-carboxamide] | 6 |
| CN1CCN(C(=O)c2ccc3c(c2)[nH]c2c(C(N)=O)cc(-c4ccc(Cl)nc4)cc23)CC1 [Example 76, 3-(6-chloro-3-pyridinyl)-7-((4-methyl-1-piperazinyl)carbonyl)-9H-carbazole-1-carboxamide] | 7 |
| COCCN1CCN(Cc2ccc(-c3cc(C(N)=O)c4[nH]c5cc(N6CCOCC6)ccc5c4n3)s2)CC1 [Example 373, 2-(5-((4-(2-methoxyethyl)piperazin-1-yl)methyl)thiophen-2-yl)-7-morpholino-5H-pyrido[3,2-b]indole-4-carboxamide] | 6 |
| COc1cccc(-c2cc(C(N)=O)c3[nH]c4cc(NC(=O)OCCN)ccc4c3c2)c1 [Example 132, 2-aminoethyl (8-carbamoyl-6-(3-methoxyphenyl)-9H-carbazol-2-yl)carbamate] | 7 |
| COc1ccc(-c2cc(C(N)=O)c3[nH]c4ccc(C(=O)N5CCC[C@H](O)C5)cc4c3c2)cc1F [Example 190, (S)-3-(3-fluoro-4-methoxyphenyl)-6-(3-hydroxypiperidine-1-carbonyl)-9H-carbazole-1-carboxamide] | 2 |
| CN(C)CCNC(=O)c1ccc2[nH]c3c(C(N)=O)cc(-c4ccc(Cl)c(Cl)c4)cc3c2c1 [Example 56, 3-(3,4-dichlorophenyl)-N^6-(2-(dimethylamino)ethyl)-9H-carbazole-1,6-dicarboxamide] | 6 |
| CNC(=O)c1cc(-c2ccc(OC)cc2)nc2c1[nH]c1cc(OC)ccc12 [Example 128, 7-Methoxy-2-(4-methoxyphenyl)-N-methyl-5H-pyrido[3,2-b]indole-4-carboxamide] | 1230 |
| COc1cccc(-c2cc(C(N)=O)c3[nH]c4ccncc4c3c2)c1 [Example 203, 8-(3-Methoxyphenyl)-5H-pyrido[4,3-b]indole-6-carboxamide, HCl] | 34 |
| NC(=O)c1cc(N2CCC(N)CC2)nc2c1[nH]c1cc(C(=O)N3CCOCC3)ccc12 [Example 405, 2-(4-aminopiperidin-1-yl)-7-(morpholine-4-carbonyl)-5H-pyrido[3,2-b]indole-4-carboxamide] | 636 |
| NC(=O)c1cc(-c2cccc(Cl)c2)nc2c1[nH]c1ccc(CN3CCOCC3)cc12 [Example 257, 2-(3-Chlorophenyl)-8-(morpholinomethyl)-5H-pyrido[3,2-b]indole-4-carboxamide] | 1 |
| COc1ccc(-c2cc(C(N)=O)c3[nH]c4ccc(C(=O)N5C[C@@H]6C[C@H]5CO6)cc4c3c2)cc1F [Example 196, 6-((1S,4S)-2-oxa-5-azabicyclo[2.2.1]heptane-5-carbonyl)-3-(3-fluoro-4-methoxyphenyl)-9H-carbazole-1-carboxamide] | 1 |
| COc1cc(-c2cc(C(N)=O)c3[nH]c4cc(C(=O)N5CCN(C)CC5)ccc4c3c2)ccc1NC(=O)OC(C)(C)C [Example 73, tert-butyl (4-(1-carbamoyl-7-((4-methyl-1-piperazinyl)carbonyl)-9H-carbazol-3-yl)-2-methoxyphenyl)carbamate] | 160 |
| COC(=O)c1cccc2[nH]c3c(C(N)=O)cc(-c4cccc(OC)c4)cc3c12 [Example 143, Methyl 8-carbamoyl-6-(3-methoxyphenyl)-9H-carbazole-4-carboxylate] | 110 |
| COc1ccc(-c2cc(C(N)=O)c3[nH]c4cc(N5CCOCC5)ccc4c3n2)cc1F [Example 344, 2-(3-fluoro-4-methoxyphenyl)-7-morpholino-5H-pyrido[3,2-b] indole-4-carboxamide] | 1 |
| COc1ccc(-c2cc(C(N)=O)c3[nH]c4ccc(C(=O)N5CCC(O)CC5)cc4c3c2)cc1F [Example 197, 3-(3-fluoro-4-methoxyphenyl)-6-(4-hydroxypiperidine-1-carbonyl)-9H-carbazole-1-carboxamide] | 1 |
| NC(=O)c1cc(-c2ccc(Cl)c(Cl)c2)cc2c1[nH]c1ccc(C(=O)N3CCOC(CO)C3)cc12 (stereo not shown) [Example 180, 3-(3,4-dichlorophenyl)-6-(2-(hydroxymethyl)morpholine-4-carbonyl)-9H-carbazole-1-carboxamide] | 2 |
| Cn1ccc2cc(-c3cc(C(N)=O)c4[nH]c5cc(C(=O)N6CCOCC6)ccc5c4n3)ccc21 [Example 448, 2-(1-methyl-1H-indol-5-yl)-7-(morpholine-4-carbonyl)-5H-pyrido[3,2-b]indole-4-carboxamide] | 1 |
| NC(=O)c1cc(-c2ccc(OC(F)(F)F)cc2)cc2c1[nH]c1cc(C(=O)N3CCOCC3)ccc12 [Example 151, 7-(4-morpholinylcarbonyl)-3-(4-(trifluoromethoxy)phenyl)-9H-carbazole-1-carboxamide] | 6 |
| CN1CCN(c2ccc3c(c2)[nH]c2c(C(N)=O)cc(-c4cccc(Cl)c4)nc23)CC1 [Example 309, 2-(3-chlorophenyl)-7-(4-methylpiperazin-1-yl)-5H-pyrido[3,2-b]indole-4-carboxamide] | 1 |
| COc1ccc(-c2cc(C(N)=O)c3[nH]c4cc(C(=O)N5CCN(C)CC5)ccc4c3c2)cc1F [Example 79, 3-(3-fluoro-4-methoxyphenyl)-7-((4-methyl-1-piperazinyl)carbonyl)-9H-carbazole-1-carboxamide] | 6 |
| CC(C)(C)N1CCN(Cc2ccc3c(c2)[nH]c2c(C(N)=O)cc(-c4cccc(Cl)c4)nc23)CC1 [Example 256, 7((4-tert-Butyl-1-piperazinyl)methyl)-2-(3-chlorophenyl)-5H-pyrido[3,2-b]indole-4-carboxamide] | 1 |

Second part, the compound after the results:

| IC50 [nM] | Compound |
| --- | --- |
| 818 | Cc1cc(-c2cc(C(N)=O)c3[nH]c4cc(C5CCN(C(=O)OC(C)(C)C)CC5)ccc4c3c2)ccc1CN1CCOCC1 [Example 486, tert-Butyl 4-(8-carbamoyl-6-(3-methyl-4-(morpholinomethyl)phenyl)-9H-carbazol-2-yl)piperidine-1-carboxylate] |
| 108 | NC(=O)c1cc(-c2cnc(N3CCOCC3)nc2)cc2c1[nH]c1cc(C(=O)N3CCOCC3)ccc12 [Example 579, 7-(4-morpholinylcarbonyl)-3-(2-(4-morpholinyl)-5-pyrimidinyl)-9H-carbazole-1-carboxamide] |
| 1 | NC(=O)c1cc(-c2ccc(N3CCOCC3)nc2)nc2c1[nH]c1cc(N3CCOCC3)ccc12 [Example 504, 7-morpholino-2-(6-morpholinopyridin-3-yl)-5H-pyrido[3,2-b]indole-4-carboxamide] |
| 1 | NC(=O)c1cc(-c2ccc(C3CC3)nc2)nc2c1[nH]c1cc(N3CCOCC3)ccc12 [Example 499, 2-(6-cyclopropylpyridin-3-yl)-7-morpholino-5H-pyrido[3,2-b]indole-4-carboxamide] |
| 123 | Cc1cccc(-c2cc(C(N)=O)c3[nH]c4cc(N5CCN(Cc6ccccc6)CC5)ccc4c3c2)c1 [Example 479, 7-(4-Benzylpiperazin-1-yl)-3-m-tolyl-9H-carbazole-1-carboxamide] |
| 7 | Cn1ncc2ccc(-c3cc(C(N)=O)c4[nH]c5cc(C(=O)N6CCOCC6)ccc5c4n3)cc21 [Example 454, 2-(1-methyl-1H-indazol-6-yl)-7-(morpholine-4-carbonyl)-5H-pyrido[3,2-b]indole-4-carboxamide] |
| 1010 | N#Cc1cc(-c2cc(C(N)=O)c3[nH]c4cc(C(=O)N5CCOCC5)ccc4c3c2)ccc1F [Example 563, 3-(3-cyano-4-fluorophenyl)-7-(4-morpholinylcarbonyl)-9H-carbazole-1-carboxamide] |
| 1 | NC(=O)c1cc(-c2ccc3scnc3c2)nc2c1[nH]c1cc(C(=O)N3CCOCC3)ccc12 [Example 456, 2-(benzo[d]thiazol-5-yl)-7-(morpholine-4-carbonyl)-5H-pyrido[3,2-b]indole-4-carboxamide] |
| 146 | Cc1noc(C)c1-c1cc(C(N)=O)c2[nH]c3cc(C(=O)N4CCOCC4)ccc3c2n1 [Example 461, 2-(3,5-dimethylisoxazol-4-yl)-7-(morpholine-4-carbonyl)-5H-pyrido[3,2-b]indole-4-carboxamide] |
| 133 | NC(=O)c1cc(-c2ccc(CN3CCOCC3)c(Cl)c2)cc2c1[nH]c1cc(-c3cccnc3)ccc12 [Example 481, 3-(3-Chloro-4-(morpholinomethyl)phenyl)-7-(pyridin-3-yl)-9H-carbazole-1-carboxamide] |
| 112 | NC(=O)c1cc(-c2cnoc2)nc2c1[nH]c1cc(C(=O)N3CCOCC3)ccc12 [Example 462, 2-(isoxazol-4-yl)-7-(morpholine-4-carbonyl)-5H-pyrido[3,2-b]indole-4-carboxamide] |
| 7 | Cc1cc(-c2cc(C(N)=O)c3[nH]c4cc(N5CCOCC5)ccc4c3n2)ccc1Cl [Example 501, 2-(4-chloro-3-methylphenyl)-7-morpholino-5H-pyrido[3,2-b]indole-4-carboxamide] |
| 885 | NC(=O)c1cc(-c2ccc(F)c(Cl)c2)cc2c1[nH]c1cc(C(=O)N3CCOCC3)ccc12 [Example 545, 3-(3-Chloro-4-fluorophenyl)-7-(morpholine-4-carbonyl)-9H-carbazole-1-carboxamide] |
